Assay results reported in PubChem BioAssay (NCI).
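Compound exposure: 48 hours, 5 concentrations, 96-well plates. GI50 = concentration required for 50% inhibition of growth. TGI marks complete inhibition of growth.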

Columns and labels:
Experiment in all cases: growth of human tumour cells (NCI), 48 h
[1] = tested on: SF-268 CNS
[2] = tested on: TK-10 renal
[3] = tested on: CAKI-1 renal
[4] = tested on: MDA-MB-435
[5] = tested on: MCF7 breast
[6] = tested on: A549 NSCLC
[7] = tested on: EKVX NSCLC
[8] = tested on: ACHN renal
[9] = tested on: HCT-116 colon
[10] = tested on: KM12 colon

SMILES | GI50 [1] [µM] | TGI [1] [µM] | GI50 [2] [µM] | TGI [2] [µM] | GI50 [3] [µM] | TGI [3] [µM] | GI50 [4] [µM] | TGI [4] [µM] | GI50 [5] [µM] | TGI [5] [µM] | GI50 [6] [µM] | TGI [6] [µM] | GI50 [7] [µM] | TGI [7] [µM] | GI50 [8] [µM] | TGI [8] [µM] | GI50 [9] [µM] | TGI [9] [µM] | GI50 [10] [µM] | TGI [10] [µM]
N#Cc1nc2cc(F)c(F)cc2nc1-c1ccc(Cl)cc1 | 8.07 | 30.2 | 22.4 | 67.3 | 15.1 | 38.5 | 17.5 | 39.1 | 13.1 | > 100 | 39.3 | > 100 | 10.4 | > 69.4 | 10.4 | 43.8 | 10.7 | 29.2 | 51.9 | > 100
OCCNCCNc1c2ccccc2nc2oc3ccccc3c12 | 7.33 | 28.3 | 22.4 | 86.8 | 11.9 | 56.4 | 11.5 | 29.3 | 6.01 | 29.2 | 10.3 | 35.7 | 13 | 46.1 | 5.82 | 32.7 | 4.61 | 16.2 | 8.31 | > 100
CCCCCCCCCCCC[n+]1ccc(C(N)=O)cc1 | 2.78 | 11.5 | 1.73 | 4.26 | 10.7 | 26.2 | 3.17 | 14.9 | 3.7 | 15.4 | 10.1 | 26.2 | 2.55 | 12.8 | 6.06 | 22 | 4.58 | 20.5 | 1.43 | 3
S=C(Nc1ccccc1)N(Cc1ccccc1)c1ccccc1 |  | > 100 |  | 80.3 |  | 90.3 |  | 49.5 |  | > 100 |  | > 100 |  | 58.4 |  | > 100 |  | > 100 |  | 69.6
NCCCCN(Cc1nc2ccccc2[nH]1)[C@H]1CCCc2cccnc21 | 9.71 | 97.3 | 25.3 | > 75.3 | 16.1 | > 64.4 | 17.4 | 54.6 | 17.8 | > 72.7 | 15.2 | 44.4 | 15.2 | > 100 | 26.3 | > 100 | 6.81 | 51.3 | 15.5 | > 100
CN(C)c1ccc(O)c2c1C[C@H]1C[C@H]3[C@H](N(C)C)C(=O)C(C(N)=O)=C(O)[C@@]3(O)C(=O)C1=C2O | 5.46 | > 100 | 16 | > 100 | 2.16 | 20.9 | 5.18 | 33.2 | 10.1 | > 100 | 5.65 | > 100 | 6.7 | > 100 | 4.09 | > 100 | 3.86 | 35 | 6.29 | 27.4
COCCNC(=O)c1ccc(-c2nc3ccc4[nH]ncc4c3c3c2CCCC3)cc1 | 2.22 | 39.7 | 1.09 | > 100 | 0.689 | 7.29 | 2.83 | > 100 | 2.52 | 20.4 | 2.13 | > 100 | 1.61 | 43.2 | 1.14 | 57.7 | 1.2 | > 100 | 0.741 | 42.5
COc1cc(/C=C/C(=O)c2c(C)n([O-])c3ccc(Cl)cc3[n+]2=O)cc(OC)c1OC | 15.4 | > 100 | 26.5 | 97.7 | > 100 | > 100 | > 100 | > 100 | 57 | > 100 | 59.8 | > 100 | 25.2 | > 100 | > 100 | > 100 | 76 | > 100 | > 100 | > 100
O=C(CN1C(=O)c2ccccc2C1=O)C(O)CN1C(=O)c2ccccc2C1=O (stereo not given) |  | 88.1 |  | > 100 |  | > 100 |  | > 100 |  | > 100 |  | > 100 |  | > 100 |  | 49.3 |  | > 100 |  | > 100
C/C=C/C=C\C1OC(O)([C@H](CC)C(=O)NC/C=C/C=C(\C)[C@H](OC)C(C)C2OC(\C=C/C=C/C=C(\C)C(=O)c3c(O)ccn(C)c3=O)[C@H](O)[C@@H]2O)C(O)C(O)C1(C)C (stereo not given in full) |  | > 100 |  | > 100 |  | > 100 |  | > 100 |  | > 100 |  | > 100 |  | > 100 |  | > 100 |  | > 100 |  | > 100
CSC1C(=O)c2ccccc2/C(=N/Nc2nc3ccccc3s2)C1C (stereo not given) | 7.96 | 19.1 | 15.6 | 42 | 8.85 | 20.1 | 9.38 | 19.8 | 5.52 | 34.7 | 16 | 44.4 | 8.44 | 18.4 | 5.65 | 11.7 | 4.67 | 28.8 | 18.7 | > 50
OC(CNc1ccnc2cc(Cl)ccc12)CNC1CCCCC1 (stereo not given) | 8.23 | 21.9 | 3.61 | 13.6 | 1.84 | 4.05 | 1.7 | 3.28 | 7.36 | 21.9 | 8.12 | 21.7 | 6.15 | 27 | 6.06 | 19.4 | 4.66 | 16.7 | 13 | 27.3
O=C(N/N=C\c1ccc(N(CCCl)CCCl)cc1Cl)c1cccnc1 | 23.4 | > 84 | 0.991 | 7.84 | 7.06 | 48.2 | 17.1 | 46.1 | 1.39 | > 82.6 | 7.57 | 73.8 | 22.6 | > 83.6 | 28.5 | > 100 | 3.23 | 36.6 | 19.4 | 64.3
CCOC1C=CCCO1 (stereo not given) |  | > 100 |  | > 100 |  | > 100 |  | > 100 |  | > 100 |  | > 100 |  | > 100 |  | > 100 |  | > 100 |  | > 100
